Data as given in patent publication US9732386B2, “Cell aging as a unique biomarker of major depression” (THE REGENTS OF THE UNIVERSITY OF CALIFORNIA, priority 2010, dated 2017).

Test system: subjects with Major Depressive Disorder
Test: Hamilton Depression Rating Scale (HDRS) ratings over 8 weeks of open-label sertraline treatment
Format: in vivo, human

In the case of `CN[C@H]1CC[C@@H](c2ccc(Cl)c(Cl)c2)c2ccccc21` [sertraline], the “HDRS ratings, Mean±SD” value (Week 8 of sertraline treatment, 50 to max 200 mg per day, 16 depressed subjects, Baseline 18.50±3.65, paired t=5.67, p<0.000) is reported as 10.19±4.62, the “range of changes in HDRS ratings” value (over the 8-week course of sertraline treatment, individual subjects) is reported as 27% worsening to 82% improvement and the “mean improvement in HDRS ratings” value (over the 8-week course of sertraline treatment, relative to baseline) is reported as 42.3±31%.
